Laboratory results as given in a compilation of properties of binary mixtures (doi:10.1021/acs.jpcc.9b06000).

Experiment: xn = mol fraction of the nth substance listed
Settings: 101 kPa

FC1CC(F)(F)C(F)(F)C1(F)F (centres undefined) + CCCC[N+]1(C)CCCC1.FC(F)(F)C(F)(F)[P-](F)(F)(F)(C(F)(F)C(F)(F)F)C(F)(F)C(F)(F)F
Settings | electrical conductivity [S/m] | viscosity [mPa·s]
298.1 K, x2 = 0.035 | 0.402 | –
298.1 K, x2 = 0.077 | 0.514 | –
298.1 K, x2 = 0.122 | 0.605 | –
298.1 K, x2 = 0.127 | – | 3.91
298.1 K, x2 = 0.18 | 0.678 | –
298.1 K, x2 = 0.248 | 0.569 | –
298.1 K, x2 = 0.334 | 0.489 | –
298.1 K, x2 = 0.437 | 0.351 | –
298.1 K, x2 = 0.656 | – | 54.8
298.1 K, x2 = 0.841 | – | 112.6
303 K, x2 = 0.035 | 0.428 | –
303 K, x2 = 0.077 | 0.554 | –
303 K, x2 = 0.08 | – | 2.72
303 K, x2 = 0.122 | 0.656 | –
303 K, x2 = 0.248 | 0.638 | –
303 K, x2 = 0.331 | 0.572 | –
303 K, x2 = 0.338 | – | 11.23
303 K, x2 = 0.653 | 0.33 | –
303 K, x2 = 0.659 | – | 45
308.1 K, x2 = 0.032 | 0.453 | –
308.1 K, x2 = 0.08 | – | 2.37
308.1 K, x2 = 0.125 | 0.717 | –
308.1 K, x2 = 0.183 | 0.812 | –
308.1 K, x2 = 0.248 | 0.703 | –
308.1 K, x2 = 0.331 | 0.641 | –
308.1 K, x2 = 0.437 | 0.478 | 15.23
308.1 K, x2 = 0.656 | 0.38 | 37
308.1 K, x2 = 0.839 | 0.254 | –
308.1 K, x2 = 0.844 | – | 68.1
313 K, x2 = 0 | – | 1.28
313 K, x2 = 0.035 | 0.482 | –
313 K, x2 = 0.077 | 0.638 | –
313 K, x2 = 0.122 | 0.772 | –
313 K, x2 = 0.251 | 0.764 | –
313 K, x2 = 0.334 | 0.714 | –
313 K, x2 = 0.338 | – | 8.03
313 K, x2 = 0.437 | 0.54 | –
313 K, x2 = 0.653 | 0.449 | –
313 K, x2 = 0.655 | – | 28.8
313 K, x2 = 0.839 | 0.297 | –
313 K, x2 = 0.841 | – | 54.5
318.1 K, x2 = 0.08 | – | 1.95
318.1 K, x2 = 0.125 | 0.83 | –
318.1 K, x2 = 0.183 | 0.949 | –
318.1 K, x2 = 0.248 | 0.826 | –
318.1 K, x2 = 0.338 | 0.786 | –
318.1 K, x2 = 0.431 | 0.609 | –
318.1 K, x2 = 0.653 | 0.511 | –
318.1 K, x2 = 0.84 | – | 44.8
323 K, x2 = 0 | – | 1.08
323 K, x2 = 0.039 | 0.543 | –
323 K, x2 = 0.077 | 0.75 | –
323 K, x2 = 0.122 | 0.906 | –
323 K, x2 = 0.183 | 1.04 | 3.12
323 K, x2 = 0.248 | 0.899 | –
323 K, x2 = 0.331 | 0.851 | –
323 K, x2 = 0.335 | – | 6.61
323 K, x2 = 0.434 | 0.703 | –
323 K, x2 = 0.653 | 0.591 | –
323 K, x2 = 0.839 | 0.417 | –
323 K, x2 = 0.84 | – | 36.8
